# Measured values taken from patent publication US4176180A (priority 1977, dated 1979).
# Where a name gives a salt, the structure may show the parent alone.
# Experiments:
# [1] = serum concentration of erythromycin two hours after ethyl-succinyl erythromycin; assay type: in vivo, human (ill persons)
# clinical = conditions: human, in vivo
# Haemophilus influenzae = conditions: gram negative bacilli; cited from earlier work
# Mycoplasma pneumoniae = conditions: mycoplasmae; cited from earlier work
# Bacteroides fragilis = conditions: gram negative bacilli; cited from earlier work
# Brucella melitensis = conditions: gram negative bacilli; cited from earlier work
# [2] = human, in vivo, 2 h
# Listeria monocytogenes = conditions: gram positive bacilli; cited from earlier work
# Diplococcus pneumoniae = conditions: gram positive cocci; cited from earlier work
# Pasteurella multocida = conditions: gram negative bacilli; cited from earlier work
# Erysipelothrix insidiosa = conditions: gram positive bacilli; cited from earlier work
# Str. faecalis = conditions: gram positive cocci; cited from earlier work
# Staph. epidermidis = conditions: gram positive cocci; cited from earlier work
# Str. non-groupable = conditions: gram positive cocci; cited from earlier work
# Bordetella pertussis = conditions: gram negative bacilli; cited from earlier work
# Neisseria gonorrhoeae = conditions: gram negative cocci; cited from earlier work
# [3] = system: Corynebacterium diphteriae; conditions: gram positive bacilli; cited from earlier work
# Str. pyogenes = conditions: gram positive cocci; cited from earlier work
# Staph. aureus = conditions: gram positive cocci; cited from earlier work
# Neisseria menigitidis = conditions: gram negative cocci; cited from earlier work
# Plectridium tetani = conditions: gram positive bacilli; cited from earlier work
# Clostridium perfringens = conditions: gram positive bacilli; cited from earlier work
# [4] = in some patients, after prolonged treatment; cited from earlier work
# [5] = Serum concentration of erythromycine, Average
structure (smiles),measurement,setting,value
"CCOC(=O)CCC(=O)O[C@H]1[C@H](O[C@@H]2[C@@H](C)[C@H](O[C@H]3C[C@@](C)(OC)[C@@H](O)[C@H](C)O3)[C@@H](C)C(=O)O[C@H](CC)[C@@](C)(O)[C@H](O)[C@@H](C)C(=O)[C@H](C)C[C@@]2(C)O)O[C@H](C)C[C@@H]1N(C)C [ES, ethyl-succinyl erythromycin]",regularity of the serum concentrations obtained,[1]; two hours following administration,irregularity in the serum concentrations obtained
same,"Serum concentration of erythromycin, Total","[1]; two hours following administration of 600 mg, sum over 9 persons",15360 ng/mL
"CC[C@H]1OC(=O)[C@H](C)[C@@H](O[C@H]2C[C@@](C)(OC)[C@@H](O)[C@H](C)O2)[C@H](C)[C@@H](O[C@@H]2O[C@H](C)C[C@H](N(C)C)[C@H]2O)[C@](C)(O)C[C@@H](C)C(=O)[C@H](C)[C@@H](O)[C@]1(C)O [E, erythromycin]",Cmax,"clinical; Maximum concentrations of erythromycin, Average m",996 ng/mL
same,concentration at 1 h,clinical; [5],321 ng/mL
same,concentration at 1.5 h,clinical; [5],610 ng/mL
same,concentration at 2 h,clinical; [5],988 ng/mL
same,MINIMUM INHIBITING CONCENTRATIONS,Haemophilus influenzae,0.4-3.1 […] MILILITER OF MEDIUM
same,MINIMUM INHIBITING CONCENTRATIONS,Mycoplasma pneumoniae,0.004-0.016 […] MILILITER OF MEDIUM
same,MINIMUM INHIBITING CONCENTRATIONS,Bacteroides fragilis,0.8-6.2 […] MILILITER OF MEDIUM
same,MINIMUM INHIBITING CONCENTRATIONS,Brucella melitensis,0.3 […] MILILITER OF MEDIUM
same,"Serum concentration of erythromycine, Average",[2],988 ng/mL
same,MINIMUM INHIBITING CONCENTRATIONS,Listeria monocytogenes,0.2 […] MILILITER OF MEDIUM
same,MINIMUM INHIBITING CONCENTRATIONS,Diplococcus pneumoniae,0.01-0.2 […] MILILITER OF MEDIUM
same,MINIMUM INHIBITING CONCENTRATIONS,Pasteurella multocida,0.8 […] MILILITER OF MEDIUM
same,MINIMUM INHIBITING CONCENTRATIONS,Erysipelothrix insidiosa,0.06 […] MILILITER OF MEDIUM
same,MINIMUM INHIBITING CONCENTRATIONS,Str. faecalis,0.6-3.1 […] MILILITER OF MEDIUM
same,MINIMUM INHIBITING CONCENTRATIONS,Staph. epidermidis,0.2-3.1 […] MILILITER OF MEDIUM
same,MINIMUM INHIBITING CONCENTRATIONS,Str. non-groupable,0.02-3.1 […] MILILITER OF MEDIUM
same,MINIMUM INHIBITING CONCENTRATIONS,Bordetella pertussis,0.2 […] MILILITER OF MEDIUM
same,MINIMUM INHIBITING CONCENTRATIONS,Neisseria gonorrhoeae,0.04-0.4 […] MILILITER OF MEDIUM
same,MINIMUM INHIBITING CONCENTRATIONS,[3],0.2-3.1 […] MILILITER OF MEDIUM
same,MINIMUM INHIBITING CONCENTRATIONS,Str. pyogenes,0.02-0.2 […] MILILITER OF MEDIUM
same,MINIMUM INHIBITING CONCENTRATIONS,Staph. aureus,0.01-1.6 […] MILILITER OF MEDIUM
same,MINIMUM INHIBITING CONCENTRATIONS,Neisseria menigitidis,0.2-1.6 […] MILILITER OF MEDIUM
same,MINIMUM INHIBITING CONCENTRATIONS,Plectridium tetani,0.2-0.6 […] MILILITER OF MEDIUM
same,MINIMUM INHIBITING CONCENTRATIONS,Clostridium perfringens,0.1-0.2 […] MILILITER OF MEDIUM
"CCC(=O)O[C@H]1[C@H](O[C@@H]2[C@@H](C)[C@H](O[C@H]3C[C@@](C)(OC)[C@@H](O)[C@H](C)O3)[C@@H](C)C(=O)O[C@H](CC)[C@@](C)(O)[C@H](O)[C@@H](C)C(=O)[C@H](C)C[C@@]2(C)O)O[C@H](C)C[C@@H]1N(C)C [estolate, lauryl sulfate of the propionic ester of erythromycin]",hepatotoxicity,[4],not inconsiderable hepatotoxicity
